Counter-ions that a name gives are not always drawn. A value given as a limit tells only on which side of the number the result lay.

From patent US20190192697A1, “CHEMICAL PROBES OF LYSYL OXIDASK-LIKE 2 AND USES THEREOF” (PHARMAKEA, INC., priority 2016, published 2019) come the findings set out here.

The first data set deals with T1, LOXL2 (Homo sapiens, UniProt Q9Y4K0).
T1 sequence (Q9Y4K0 26-774): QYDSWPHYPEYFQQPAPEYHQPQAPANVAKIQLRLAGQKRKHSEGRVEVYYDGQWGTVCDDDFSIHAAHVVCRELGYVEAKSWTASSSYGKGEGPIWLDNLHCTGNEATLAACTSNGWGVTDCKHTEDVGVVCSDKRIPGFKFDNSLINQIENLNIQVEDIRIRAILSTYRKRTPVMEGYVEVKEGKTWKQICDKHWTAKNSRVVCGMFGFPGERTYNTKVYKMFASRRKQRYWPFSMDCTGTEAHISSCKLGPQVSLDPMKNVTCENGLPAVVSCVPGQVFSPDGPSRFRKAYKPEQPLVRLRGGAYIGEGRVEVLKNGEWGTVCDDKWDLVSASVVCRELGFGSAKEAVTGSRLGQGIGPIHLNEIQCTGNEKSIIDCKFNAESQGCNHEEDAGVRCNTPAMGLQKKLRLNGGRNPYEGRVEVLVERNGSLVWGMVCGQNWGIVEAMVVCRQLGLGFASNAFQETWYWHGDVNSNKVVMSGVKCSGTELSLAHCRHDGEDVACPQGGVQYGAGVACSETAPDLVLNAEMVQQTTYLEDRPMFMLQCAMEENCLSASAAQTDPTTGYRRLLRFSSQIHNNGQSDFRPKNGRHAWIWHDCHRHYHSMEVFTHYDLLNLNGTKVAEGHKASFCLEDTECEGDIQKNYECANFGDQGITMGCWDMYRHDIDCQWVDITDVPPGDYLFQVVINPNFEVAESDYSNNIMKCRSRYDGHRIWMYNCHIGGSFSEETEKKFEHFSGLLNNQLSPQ
Description: Erenna-based fluorescence magnetic bead assay for free/unbound LOXL2. The format is binding. As to conditions: 34 nM Compound 1-2, 15 hours at room temperature.
Description: Following the incubation, 10 μg of streptavidin-coated magnetic microparticles (MPs) are added to each well and incubated for 30 min-2 hours at room temperature with shaking. The MPs are washed once using magnetic separation and 20 μL of a fluorescently conjugated anti-LOXL2 antibody is added to each well (for example, R&D Systems anti-LOXL2 Goat IgG polyclonal antibody conjugated to AlexaFluor 647) and incubated for 30 min-2 hours at room temperature with shaking. The MPs are washed four times with magnetic separation and transferred to a new plate. All liquid is aspirated from the plate and elution buffer added and incubated for 10 minutes at room temperature with shaking. The eluate is transferred to a 384 well assay plate containing neutralization buffer, sealed and read on Erenna®.
Turning to `Cl.NCc1cc(Oc2cccc(C(=O)NCCOCCOCCOCCOCCOCCOCCOCCOCCOCCOCCOCCNC(=O)CCCC[C@@H]3SC[C@@H]4NC(=O)N[C@@H]43)c2)nc(C(F)(F)F)c1` [Compound 1-2, 3-((4-(Aminomethyl)-6-(trifluoromethyl)pyridin-2-yl)oxy)-N-(37-oxo-41-((3aS,4S,6aR)-2-oxohexahydro-1H-thieno[3,4-d]imidazol-4-yl)-3,6,9,12,15,18,21,24,27,30,33-undecaoxa-36-azahentetracontyl)benzamide hydrochloride], the “signal of free/unbound LOXL2 versus LOXL2 concentration” value is recorded as “linear increase in signal of free/unbound LOXL2 up to 500 pg/mL”.

Test system in another data set: not listed separately
Description: Compound tissue distribution studies with 18F-PET imaging. Type of data set: in vivo. As to conditions: 30-50 μCi intravenously, PET imaged 90-120 minutes, naïve or bleomycin-instilled mice. On the procedure: In these studies, naïve or bleomycin-instilled mice were injected with 30-50 μCi of Compound 1-13 (^18F-labeled) intravenously and were PET imaged for 90-120 minutes following injection of the radiolabel. These animals were then sacrificed at 2.5 hours post-administration of the ^18F-labeled Compound 1-13 and tissues and blood were analyzed by scintillation counting to determine concentration of radioactivity remaining.
To determine specific binding, a subset of mice were administered a blocking dose of Compound 1-13a or vehicle (delivered at 60 mg/kg PO) at a suitable time point prior to the PET-ligand injection, such as 2.5-4 h prior.
With `NCc1cc(Oc2cccc(C(=O)N3C[C@@H](O)[C@H]([18F])C3)c2)nc(C(F)(F)F)c1` [Compound 1-13, (3-((4-(Aminomethyl)-6-(trifluoromethyl)pyridin-2-yl)oxy)phenyl)((3R,4R)-3-^18fluoro-4-hydroxypyrrolidin-1-yl)methanone hydrochloride], the “tissue distribution of the 18F-labeled ligand” value was “Highest initial concentrations of ligand were observed in liver, kidney and lung”.

Another data set deals with T1, LOXL2. Description: Human LOXL2 amine oxidase activity assay (Amplex Red). Type of data set: biochemical. Also noted: expressed in transfected cells; host or cells: CHO cells stably expressing human LOXL2; 10-20x concentrated conditioned media. The following applies: concentrated conditioned media from CHO cells expressing human LOXL2; 2 h at 37° C. pre-incubation. On the procedure: LOXL2 amine oxidase activity is evaluated by measuring Amplex Red fluorescence using 10-20× concentrated conditioned media from CHO cells stably expressing human LOXL2. To assay for amine oxidase activity, 10 μL of the concentrated conditioned media is incubated with 2 μL of test compound in DMSO and 73 μL Assay Buffer (50 mM Borate Buffer, pH8) for 2 h at 37° C. After the 2 h incubation, 5 μL of 10 mM 1,5-diaminopentane (DAP) diluted in Assay Buffer and 10 μL of Amplex Red Mix (8.5 μL Assay Buffer+0.5 μL of 10 mM Amplex Red+1 μL of 500 U/mL Horseradish Peroxidase) are added and the plate mixed and immediately placed on the FlexStaion for fluorescence measurements. Fluorescence is read in kinetic mode every 2 min for 1 hour at excitation=544 nm and emission=590 nm. The amine oxidase activity is calculated from the slope of the linear portion of the curve.
What is called IC50 is the concentration at which inhibition is half-maximal. Read a high IC50 as lower potency. `Cc1cc(=O)oc2cc(NC(=O)c3cccc(Oc4cc(CN)cc(C(F)(F)F)n4)c3)ccc12` [Compound 1-5, 3-((4-(Aminomethyl)-6-(trifluoromethyl)pyridin-2-yl)oxy)-N-(4-methyl-2-oxo-2H-chromen-7-yl)benzamide hydrochloride] came in with an IC50 below 300 nM.

On to `NCc1cc(Oc2cccc(C(=O)NCCOCCOCCOCCNC(=O)CCCC[C@@H]3SC[C@@H]4NC(=O)N[C@@H]43)c2)nc(C(F)(F)F)c1` [Compound 1-19, 3-((4-(Aminomethyl)-6-(trifluoromethyl)pyridin-2-yl)oxy)-N-(13-oxo-17-((3aS,4S,6aR)-2-oxohexahydro-1H-thieno[3,4-d]imidazol-4-yl)-3,6,9-trioxa-12-azaheptadecyl)benzamide hydrochloride], for which the IC50 is below 300 nM. Turning to `Cl.NCc1cc(Oc2cccc(C(=O)NCCOCCOCCOCCOCCOCCOCCOCCOCCOCCOCCOCCNC(=O)CCCC[C@@H]3SC[C@@H]4NC(=O)N[C@@H]43)c2)nc(C(F)(F)F)c1` [Compound 1-2, 3-((4-(Aminomethyl)-6-(trifluoromethyl)pyridin-2-yl)oxy)-N-(37-oxo-41-((3aS,4S,6aR)-2-oxohexahydro-1H-thieno[3,4-d]imidazol-4-yl)-3,6,9,12,15,18,21,24,27,30,33-undecaoxa-36-azahentetracontyl)benzamide hydrochloride], the IC50 is below 300 nM. On to `CN1/C(=C/C=C/C=C/C2=[N+](CCCCCC(=O)NCCCn3cc(CCCCNC(=O)c4cccc(Oc5cc(CN)cc(C(F)(F)F)n5)c4)nn3)c3ccccc3C2(C)C)C(C)(C)c2ccccc21` [Compound 1-4, 1-(6-((3-(4-(4-(3-((4-(Aminomethyl)-6-(trifluoromethyl)pyridin-2-yl)oxy)benzamido)butyl)-1H-1,2,3-triazol-1-yl)propyl)amino)-6-oxohexyl)-3,3-dimethyl-2-((1E,3E,5E)-5-(1,3,3-trimethylindolin-2-ylidene)penta-1,3-dien-1-yl)-3H-indol-1-ium chloride hydrochloride], for which the IC50 is below 300 nM. For the compound `NCc1cc(Oc2cccc(C(=O)NCCCCCNC(=O)CCCC[C@@H]3SC[C@@H]4NC(=O)N[C@@H]43)c2)nc(C(F)(F)F)c1` [Compound 1-1, 3-((4-(Aminomethyl)-6-(trifluoromethyl)pyridin-2-yl)oxy)-N-(5-(5-((3aS,4S,6aR)-2-oxohexahydro-1H-thieno[3,4-d]imidazol-4-yl)pentanamido)pentyl)benzamide hydrochloride], the IC50 is below 300 nM. The same measure, in the same setting: under `CC1(C)C(/C=C/C(=C/C=C2\N(CCCS(=O)(=O)O)c3ccc4c(S(=O)(=O)O)cc(S(=O)(=O)O)cc4c3C2(C)C)c2cccc(CCCCC(=O)NCCCCCCNC(=O)c3cccc(Oc4cc(CN)cc(C(F)(F)F)n4)c3)c2)=[N+](CCCS(=O)(=O)O)c2ccc3c(S(=O)(=O)O)cc(S(=O)(=O)O)cc3c21` [Compound 1-22, 3-(2-((1E,3Z,5Z)-3-(3-(5-((6-(3-((4-(Aminomethyl)-6-(trifluoromethyl)pyridin-2-yl)oxy)benzamido)hexyl)amino)-5-oxopentyl)phenyl)-5-(1,1-dimethyl-6,8-disulfo-3-(3-sulfopropyl)-1H-benzo[e]indol-2(3H)-ylidene)penta-1,3-dien-1-yl)-1,1-dimethyl-6,8-disulfo-1H-benzo[e]indol-3-ium-3-yl)propane-1-sulfonate trifluoroacetate] stands above 1000 nM; under `CN(C)c1cccc2c(S(=O)(=O)Nc3cccc(Oc4cc(CN)cc(C(F)(F)F)n4)c3)cccc12` [Compound 1-6, N-(3-((4-(Aminomethyl)-6-(trifluoromethyl)pyridin-2-yl)oxy)phenyl)-5-(dimethylamino)naphthalene-1-sulfonamide hydrochloride], 300 to 1000 nM. Still for that read-out and setting: under `NCc1cc(Oc2cccc(C(=O)NCCNC(=O)CCCCCNC(=O)CCCCCNC(=O)CCCC[C@@H]3SC[C@@H]4NC(=O)N[C@@H]43)c2)nc(C(F)(F)F)c1` [Compound 1-20, 3-((4-(Aminomethyl)-6-(trifluoromethyl)pyridin-2-yl)oxy)-N-(2-(6-(6-(5-((3aS,4S,6aR)-2-oxohexahydro-1H-thieno[3,4-d]imidazol-4-yl)pentanamido)hexanamido)hexanamido)ethyl)benzamide hydrochloride] stands below 300 nM; under `CN1/C(=C/C=C/C2=[N+](CCCCCC(=O)NCCCn3cc(CCCCNC(=O)c4cccc(Oc5cc(CN)cc(C(F)(F)F)n5)c4)nn3)c3ccccc3C2(C)C)C(C)(C)c2ccccc21` [Compound 1-3, 1-(6-((3-(4-(4-(3-((4-(Aminomethyl)-6-(trifluoromethyl)pyridin-2-yl)oxy)benzamido)butyl)-1H-1,2,3-triazol-1-yl)propyl)amino)-6-oxohexyl)-3,3-dimethyl-2-((1E,3E)-3-(1,3,3-trimethylindolin-2-ylidene)prop-1-en-1-yl)-3H-indol-1-ium chloride hydrochloride], below 300 nM.
